{"source": "patent US7138361B2", "about": "“Herbicidal heterocycles” (E. I. du Pont de Nemours and Company, priority 2000, dated 2006)", "format_in_all_cases": "in vivo", "key": {"[1]": {"tested_on": "common ragweed (Ambrosia elatior)", "assay": "Test C preemergence", "settings": "for Plant response rating (0 to 100), Ragweed, Common: visual evaluation after 12 to 14 days", "in_short": "(§1)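 Preemergence: seeds sown then treated. Postemergence: plants 2–18 cm, 1- to 4-leaf. Both with surfactant-containing solvent formulation; visual injury scored 0–100 after 12–14 d.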"}, "Sunflower": {"tested_on": "Sunflower", "assay": "Test C preemergence", "settings": "scale 0 to 100"}, "[2]": {"tested_on": "smallflower flatsedge (Cyperus difformis)", "assay": "Test B flooded paddy test", "settings": "Rate 1000 g/ha, scale of 0 to 100 where 0 is no effect and 100 is complete control, visually evaluated after 13 to 15 days", "in_short": "(§2)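 2-leaf plants, flooded paddy; greenhouse 13–15 d post-treatment; visual rating vs controls, 0–100 scale (0 = no effect, 100 = complete control); dash = no result.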"}, "[3]": {"tested_on": "duck salad (Heteranthera limosa)", "assay": "Test B flooded paddy test", "settings": "Rate 1000 g/ha, scale of 0 to 100 where 0 is no effect and 100 is complete control, visually evaluated after 13 to 15 days", "in_short": "as §2"}, "[4]": {"tested_on": "barnyardgrass (Echinochloa crus-galli)", "assay": "Test B flooded paddy test", "settings": "Rate 1000 g/ha, scale of 0 to 100 where 0 is no effect and 100 is complete control, visually evaluated after 13 to 15 days", "in_short": "as §2"}, "rice (Oryza saliva)": {"tested_on": "rice (Oryza saliva)", "assay": "Test B flooded paddy test", "settings": "Rate 1000 g/ha, scale of 0 to 100 where 0 is no effect and 100 is complete control, visually evaluated after 13 to 15 days", "in_short": "as §2"}, "[5]": {"tested_on": "goosegrass (Eleusine indica)", "assay": "Test C postemergence", "in_short": "as §1"}, "soybean (Glycine max)": {"tested_on": "soybean (Glycine max)", "assay": "Test C postemergence", "in_short": "as §1"}, "[6]": {"tested_on": "johnsongrass (Sorghum halepense)", "assay": "Test C postemergence", "in_short": "as §1"}, "[7]": {"tested_on": "giant foxtail (Setaria faberii)", "assay": "Test C postemergence", "in_short": "as §1"}, "[8]": {"tested_on": "common ragweed (Ambrosia elatior)", "assay": "Test C postemergence", "in_short": "as §1"}, "[9]": {"tested_on": "crabgrass (Digitaria sanguinalis)", "assay": "Test C postemergence", "in_short": "as §1"}, "[10]": {"tested_on": "bermudagrass (Cynodon dactylon)", "assay": "Test C postemergence", "in_short": "as §1"}, "[11]": {"tested_on": "velvetleaf (Abutilon theophrasti)", "assay": "Test C postemergence", "in_short": "as §1"}, "corn (Zea mays)": {"tested_on": "corn (Zea mays)", "assay": "Test C postemergence", "in_short": "as §1"}, "kochia (Kochia scoparia)": {"tested_on": "kochia (Kochia scoparia)", "assay": "Test C postemergence", "in_short": "as §1"}, "[12]": {"tested_on": "chickweed (Stellaria media)", "assay": "Test C postemergence", "in_short": "as §1"}, "[13]": {"tested_on": "pigweed (Amaranthus retroflexus)", "assay": "Test C postemergence", "in_short": "as §1"}, "[14]": {"tested_on": "Surinam grass (Brachiaria decumbens)", "assay": "Test C postemergence", "in_short": "as §1"}, "[15]": {"tested_on": "cocklebur (Xanthium strumarium)", "assay": "Test C postemergence", "in_short": "as §1"}, "[16]": {"tested_on": "lambsquarters (Chenopodium album)", "assay": "Test C postemergence", "in_short": "as §1"}, "[17]": {"tested_on": "yellow nutsedge (Cyperus esculentus)", "assay": "Test C postemergence", "in_short": "as §1"}, "[18]": {"settings": "Rate 62 g/ha, scale 0 to 100, 0 no effect, 100 complete control"}, "[19]": {"settings": "Rate 125 g/ha, scale 0 to 100, 0 no effect, 100 complete control"}}, "data": [{"compound": "CC(C)(C)c1ccn(C2CCN(c3ccc(Cl)c(Cl)c3)C2=O)n1", "note": "(stereo not drawn) [Compound 34]", "values": [{"measurement": "Plant response rating, Ragweed, Common", "setting": "[1]; [18]", "value": 0}, {"measurement": "Plant response rating, Ragweed, Common", "setting": "[1]; preemergence, Rate 31 g/ha, scale 0 to 100", "value": 0}, {"measurement": "Plant response rating (0 to 100), Ragweed, Common", "setting": "[1]; preemergence, Rate 250 g/ha", "value": 0}, {"measurement": "Plant response rating, Ragweed, Common", "setting": "[1]; preemergence, Rate 125 g/ha, scale 0 to 100, 0 no effect, 100 complete control", "value": 0}, {"measurement": "Plant response rating, Sunflower", "setting": "Sunflower; Rate 31 g/ha", "value": 0}, {"measurement": "Plant response rating, Flatsedge", "setting": "[2]", "value": 100}, {"measurement": "Plant response rating, Ducksalad", "setting": "[3]", "value": 100}, {"measurement": "Plant response rating, Barnyardgrass", "setting": "[4]", "value": 100}, {"measurement": "Plant response rating, Rice", "setting": "rice (Oryza saliva)", "value": 30}]}, {"compound": "CC(C)c1ccn(C2OCN(c3cccc(C(F)(F)F)c3)C2=O)n1", "note": "(stereo not drawn) [Compound 27]", "values": [{"measurement": "Plant response rating, Sunflower", "setting": "Sunflower; Rate 31 g/ha", "value": 0}, {"measurement": "Plant response rating, Flatsedge", "setting": "[2]", "value": 100}, {"measurement": "Plant response rating, Ducksalad", "setting": "[3]", "value": 100}, {"measurement": "Plant response rating, Barnyardgrass", "setting": "[4]", "value": 90}, {"measurement": "Plant response rating, Rice", "setting": "rice (Oryza saliva)", "value": 50}]}, {"compound": "CCC(CC)c1ccn(C2SCN(c3cccc(C(F)(F)F)c3)C2=O)n1", "note": "(stereo not drawn) [Compound 21]", "values": [{"measurement": "Plant response rating, Sunflower", "setting": "Sunflower; Rate 31 g/ha", "value": 20}, {"measurement": "Plant response rating, Flatsedge", "setting": "[2]", "value": 100}, {"measurement": "Plant response rating, Ducksalad", "setting": "[3]", "value": 100}, {"measurement": "Plant response rating, Barnyardgrass", "setting": "[4]", "value": 100}, {"measurement": "Plant response rating, Rice", "setting": "rice (Oryza saliva)", "value": 90}, {"measurement": "Plant response rating, Goosegrass", "setting": "[5]; Rate 31 g/ha, scale 0 to 100", "value": 0}, {"measurement": "Plant response rating, Goosegrass", "setting": "[5]; [19]", "value": 0}, {"measurement": "Plant response rating, Soybean", "setting": "soybean (Glycine max); Rate 31 g/ha, scale 0 to 100", "value": 0}, {"measurement": "Plant response rating, Soybean", "setting": "soybean (Glycine max); [19]", "value": 30}, {"measurement": "Plant response rating, Johnsongrass", "setting": "[6]; Rate 31 g/ha, scale 0 to 100", "value": 0}, {"measurement": "Plant response rating, Johnsongrass", "setting": "[6]; [19]", "value": 50}, {"measurement": "Plant response rating, Foxtail, Giant", "setting": "[7]; Rate 31 g/ha, scale 0 to 100", "value": 0}, {"measurement": "Plant response rating, Foxtail, Giant", "setting": "[7]; [19]", "value": 0}, {"measurement": "Plant response rating, Ragweed, Common", "setting": "[8]; Rate 31 g/ha, scale 0 to 100", "value": 0}, {"measurement": "Plant response rating, Ragweed, Common", "setting": "[8]; [19]", "value": 50}, {"measurement": "Plant response rating, Crabgrass", "setting": "[9]; Rate 31 g/ha, scale 0 to 100", "value": 0}, {"measurement": "Plant response rating, Crabgrass", "setting": "[9]; [19]", "value": 0}, {"measurement": "Plant response rating, Bermudagrass", "setting": "[10]; Rate 31 g/ha, scale 0 to 100", "value": 50}, {"measurement": "Plant response rating, Bermudagrass", "setting": "[10]; [18]", "value": 50}, {"measurement": "Plant response rating, Bermudagrass", "setting": "[10]; [19]", "value": 50}, {"measurement": "Plant response rating, Velvetleaf", "setting": "[11]; Rate 31 g/ha, scale 0 to 100", "value": 20}, {"measurement": "Plant response rating, Velvetleaf", "setting": "[11]; [19]", "value": 30}, {"measurement": "Plant response rating, Corn", "setting": "corn (Zea mays); Rate 31 g/ha, scale 0 to 100", "value": 0}, {"measurement": "Plant response rating, Corn", "setting": "corn (Zea mays); [19]", "value": 0}, {"measurement": "Plant response rating, Kochia", "setting": "kochia (Kochia scoparia); Rate 31 g/ha, scale 0 to 100", "value": 30}, {"measurement": "Plant response rating, Kochia", "setting": "kochia (Kochia scoparia); [19]", "value": 40}, {"measurement": "Plant response rating, Chickweed", "setting": "[12]; Rate 31 g/ha, scale 0 to 100", "value": 30}, {"measurement": "Plant response rating, Chickweed", "setting": "[12]; [18]", "value": 50}, {"measurement": "Plant response rating, Chickweed", "setting": "[12]; [19]", "value": 50}, {"measurement": "Plant response rating, Pigweed", "setting": "[13]; Rate 31 g/ha, scale 0 to 100", "value": 50}, {"measurement": "Plant response rating, Pigweed", "setting": "[13]; [19]", "value": 70}, {"measurement": "Plant response rating, Surinam grass", "setting": "[14]; Rate 31 g/ha, scale 0 to 100", "value": 0}, {"measurement": "Plant response rating, Surinam grass", "setting": "[14]; [18]", "value": 0}, {"measurement": "Plant response rating, Surinam grass", "setting": "[14]; [19]", "value": 0}, {"measurement": "Plant response rating, Cocklebur", "setting": "[15]; Rate 31 g/ha, scale 0 to 100", "value": 20}, {"measurement": "Plant response rating, Cocklebur", "setting": "[15]; [19]", "value": 30}, {"measurement": "Plant response rating, Lambsquarters", "setting": "[16]; Rate 31 g/ha, scale 0 to 100", "value": 70}, {"measurement": "Plant response rating, Lambsquarters", "setting": "[16]; [19]", "value": 80}, {"measurement": "Plant response rating, Nutsedge", "setting": "[17]; Rate 31 g/ha, scale 0 to 100", "value": 0}, {"measurement": "Plant response rating, Nutsedge", "setting": "[17]; [19]", "value": 0}]}, {"compound": "CC(C)(C)c1ccn(C2CCN(c3cccc(SC(F)(F)F)c3)C2=O)n1", "note": "(stereo not drawn) [Compound 93]", "values": [{"measurement": "Plant response rating, Ragweed, Common", "setting": "[1]; [19]", "value": 0}, {"measurement": "Plant response rating, Ragweed, Common", "setting": "[1]; preemergence, Rate 62 g/ha, scale 0 to 100", "value": 0}, {"measurement": "Plant response rating (0 to 100), Ragweed, Common", "setting": "[1]; preemergence, Rate 500 g/ha", "value": 0}, {"measurement": "Plant response rating, Ragweed, Common", "setting": "[1]; preemergence, Rate 250 g/ha, scale 0 to 100, 0 no effect, 100 complete control", "value": 0}, {"measurement": "Plant response rating, Sunflower", "setting": "Sunflower; Rate 62 g/ha", "value": 0}, {"measurement": "Plant response rating, Flatsedge", "setting": "[2]", "value": 100}, {"measurement": "Plant response rating, Ducksalad", "setting": "[3]", "value": 100}, {"measurement": "Plant response rating, Barnyardgrass", "setting": "[4]", "value": 100}, {"measurement": "Plant response rating, Rice", "setting": "rice (Oryza saliva)", "value": 50}]}]}
